Source: the NIST ThermoML archive (doi:10.1016/j.jct.2017.07.013)

Tests used:
[1] = refractive index (Na D-line) (dimensionless); conditions: 101.3 kPa, Liquid, Standard Abbe refractometry
[2] = 101.3 kPa, Liquid; for speed of sound: Frequency=3 MHz, Single path-length method; for mass density: Vibrating tube method
[3] = refractive index (Na D-line) (dimensionless); xn = mol fraction of the nth substance listed; conditions: 101.3 kPa, Liquid, Standard Abbe refractometry, x2 = 0
[4] = xn = mol fraction of the nth substance listed; conditions: 101.3 kPa, Liquid, x2 = 0; for speed of sound: Frequency=3 MHz, Single path-length method; for mass density: Vibrating tube method

CCCC[n+]1ccn(C)c1.O=S(=O)([N-]S(=O)(=O)C(F)(F)F)C(F)(F)F
Conditions	mass density, [2] [kg/m3]	refractive index, [1]	speed of sound, [2] [m/s]
303.15 K	1428.9	1.4245	1216.8
308.15 K	1424.1	1.4231	1205.8
313.15 K	1419.4	1.421	1195
318.15 K	1414.6	1.4195	1184.2
323.15 K	1409.9	1.4173	1173.6

COC(=O)OC [dimethyl carbonate]
Conditions	mass density, [2] [kg/m3]	refractive index, [1]	speed of sound, [2] [m/s]
303.15 K	1056.8	1.3648	1177.3
308.15 K	1050.2	1.3629	1155.6
313.15 K	1043.5	1.3626	1134.2
318.15 K	1036.8	1.3601	1113.1
323.15 K	1030	1.3586	1092.2

COC(=O)OC [dimethyl carbonate] + CCCC[n+]1ccn(C)c1.O=S(=O)([N-]S(=O)(=O)C(F)(F)F)C(F)(F)F
Conditions	mass density, [4] [kg/m3]	refractive index, [3]	speed of sound, [4] [m/s]
303.15 K	1056.8	1.3648	1177.3
308.15 K	1050.2	1.3629	1155.6
313.15 K	1043.5	1.3626	1134.2
318.15 K	1036.8	1.3601	1113.1
323.15 K	1030	1.3586	1092.2
